# Data as given in patent publication US9630964B2, “Fluoro-9-methyl-β-carbolines” (priority 2013, dated 2017).
# Experiments:
# [1] = tested on: human neuroblastoma cells (SH-SY5Y); experiment: Differentiation of human neuroblastoma cells (SH-SY5Y), morphological examination; format: cell-based; details: SH-SY5Y
# Protocol: The SH-SY5Y cell line was obtained from the German collection of microorganisms and cell cultures—DSMZ, Braunschweig. The cells were cultivated in MEM (Minimum essential medium, Life Technologies) with 10% FCS (fetal calf serum, Biochrom AG) and penicillin/streptomycin (Biochrom AG). For morphological examinations the cells were seeded in a density of 1.5×10^4 cells/cm^2 in 24-well plates (Falcon, cell culture treated) with 1 mL medium. A stock solution of 10 mmol/L of the compound according to the invention 6-fluoro-9-methyl-β-carboline was prepared in 50% ethanol and sterile filtered. Five hours after seeding of the cells the compound according to the invention 6-fluoro-9-methyl-β-carboline was added in the corresponding amount to the medium achieving the desired final concentration. The medium was changed once a week. The cells were regularly microscopically examined. Microscopic images were taken at BZ Keyence 10 with a 10×lens and 4×digital zoom. An automatic contrast enhancement was made with the program BZ Analyzer.
# [2] = tested on: Lif (Leukemia inhibitory factor); experiment: Quantitative RT-PCR, relative gene expression of Lif in SH-SY5Y cells; format: cell-based, human; details: 30 μM each
# Protocol: (§1) SH-SY5Y cell lines, which were provided by the institute of human genetics of university hospital Eppendorf and which they in turn received from Braunschweig resource center, were used again for the RT-PCR experiments (reverse transcriptase polymerase chain reaction) carried out for this purpose.
# (§2) The cells were incubated in MEM (Minimum essential medium, Life Technologies) with 10% FCS (fetal calf serum, Biochrom AG) and penicillin/streptomycin (Biochrom AG). The cells were seeded with a density of 1×10^5 cells/cm^2 in 25 cm^2 cell culture bottles (Falcon, cell culture treated) with 5 mL medium. Stock solutions of 10 mmol/L of compounds 9-methyl-β-carboline (AC-002 or 9MβC) and 6-fluoro-9-methyl-β-carboline (AC-102 or 6F9MβC), respectively were prepared in distillated water and sterile filtered. One day after the cell seeding the compounds were added in corresponding amounts (5-55 μL) to reach final concentration in the medium of 10 μM, 20 μM and 30 μM for 6F9MβC and 30 μM, 50 μM and 70 μM for 9MβC. The references received only the corresponding amount of solvent (distilled water). The medium was changed once a week.
# (§3) The cells were regularly microscopically examined and harvest after 2, 7 and 14 days of incubation time, washed with PBS and immediately frozen at −80° C.
# (§4) The RNA-isolation was done with the HighPure RNA Isolation kit of the company Roche. This isolation includes a DNaseI digestion. The concentration of RNA was measured with nanoDrop spectrometer and the RNA integrity was determined with the aid of the Bioanalyzer 2100 (Agilent). By using random hexamer primers, protector RNA inhibitor (Roche) and transcriptor reverse transcriptase (fermentas), 300 ng RNA were transcribed into cDNA per each sample.
# (§5) After the reaction, this run was diluted 1:4 and thereof 2 μL per each quantitative RT-PCR were used. This was performed in a LightCycler 480 under standard conditions in the SybrGreen format with annealing temperatures determined for each primer individually. If possible, exon spanning primers were used.
# (§6) The specificity was verified by melting curve analysis and subsequent gel electrophoresis. For each PCR the PCR efficiency and the Cq value was determined by the program LinRegPCR and these were used in further calculations. B2M (β2-microglobulin) was identified from multiple reference genes to be suitable for examination conditions. All results are results relative to the corresponding reference conditions, at which only solvent was administered for the specified period of time (i.e. 2 days, 7 days or 14 days). In FIGS. 5A to 5I are also relative gene expressions (relative to reference conditions) presented. Here, the 2-day exposition is presented in light grey, the 7-day exposition in dark grey and the 14-day exposition in black. Every measured value from FIGS. 5A-5I represents a mean value of 3 independent biologic samples.
# (§7) Analogous to example 4 RT-PCR experiments with the inventive active agent 7-fluoro-9-methyl-β-carboline (7F9MβC) were also performed for some important cellular factors. The experimental procedure was here identical to the experiments with 6-fluoro-9-methyl-β-carboline and 9-methyl-β-carboline. Here the same (like for 6F9MβC) final concentrations of 30 μM, 50 μM and 70 μM 7F9MβC for the culture medium were employed. The examined factors were BDNF (brain-derived neurotrophic factor), Lif (Leukemia inhibitory factor), DRD2S (short variant of dopamine receptor subtype 2) as well as DKK1 (Dickkopf-related protein 1). The same primers, that were already listed for the respective target genes in example 4 (Tab. 1) were used. As already noted, especially BDNF and Lif belongs to the most important factors for cellurar repair processes after traumas in the inner ear.
# NT3 (Neurotrophin 3) = experiment: Quantitative RT-PCR, relative gene expression of NT3 in SH-SY5Y cells; format: cell-based, human; details: 30 μM each, 14-day exposition
# Protocol: as §1
# The cells were incubated in MEM (Minimum essential medium, Life Technologies) with 10% FCS (fetal calf serum, Biochrom AG) and penicillin/streptomycin (Biochrom AG). The cells were seeded with a density of 1×10^5 cells/cm^2 in 25 cm^2 cell culture bottles (Falcon, cell culture treated) with 5 mL medium. […]
# The RNA-isolation was done with the HighPure RNA Isolation kit of the company Roche. […] The concentration of RNA was measured with nanoDrop spectrometer and the RNA integrity was determined with the aid of the Bioanalyzer 2100 (Agilent). […]
# After the reaction, this run was diluted 1:4 and thereof 2 μL per each quantitative RT-PCR were used. This was performed in a LightCycler 480 under standard conditions in the SybrGreen format with annealing temperatures determined for each primer individually. […]
# The specificity was verified by melting curve analysis and subsequent gel electrophoresis. For each PCR the PCR efficiency and the Cq value was determined by the program LinRegPCR and these were used in further calculations. […]
# [3] = tested on: DRD2S (short variant of dopamine receptor subtype 2); experiment: Quantitative RT-PCR, relative gene expression of DRD2S in SH-SY5Y cells; format: cell-based, human; details: 30 μM each
# Protocol: as §1, §2, §3, §4, §5, §6, §7
# learning behavior = experiment: Eight-armed labyrinth learning test; format: in vivo, rat; details: rats, 2 mg/kg intraperitoneally daily, 2 hours before session; control group 14 days
# Protocol: In an eight-armed labyrinth the effect of 6F9MβC on the learning behavior was tested. 5 months old male rats were got used to the experimenter in daily sessions for 10 days. Afterwards, they were allowed to explore the labyrinth in multiple sessions for 2 days and they also learnt that they get a food reward there. Then the food was reduced until the body weight was reduced by 10% of the starting weight. Afterwards, at each end of the 8 arms of the labyrinth food was placed and a camera installed that recorded every movement of the animal. On the first test day the rat was placed without a prior injection on the platform in the center of the labyrinth. At the next day 2 mg/kg body weight 6-fluoro-9-methyl-β-carboline (6F9MβC) as free base dissolved in physiological sodium chloride solution was administered intraperitoneally to the rat by the experimenter. 2 hours later the animal was placed on the platform in the center of the labyrinth from where it had access to all arms. This procedure was repeated daily until the animal only did one mistake, i.e. went in an arm, which it had already entered before in the corresponding session. At the end of the session all 8 arms had to be visited.
# 12 rats, that were treated with 6F9MβC and a control group of 12 rats, that only got physiological sodium chloride solution, were examined. […]
# physchem = details: water
# Protocol: Furthermore, the solubility of both compounds in water was determined by preparing concentration series of both compounds in water at room temperature. The concentration at which the compound was barely soluble was determined by external calibration. The corresponding concentration was quantified by HPLC.
compound,measurement,setting,value
"Cn1c2ccc(F)cc2c2ccncc21 [6F9MβC, 6-fluoro-9-methyl-β-carboline]",concentration at which a comparable differentiation of the tested cells is observed,[1]; 15 days incubation,30 µM
same,effect on proliferation and morphology of cells,"[1]; 15 days, increasing concentrations, pronounced at 30 μM vs 0 μM",inhibits proliferation of cells and induces sprouting of slim extensions as well as a change in size and shape of the cells
same,Lif expression relative to expression induced by 9MβC,[2]; 2-day exposition,approximately three times as high
same,Lif expression relative to expression induced by 9MβC,[2]; 7-day exposition,slightly lower
same,Lif expression relative to expression induced by 9MβC,[2]; 14-day exposition,approximately twice as high
same,NT3 expression relative to expression induced by 9MβC,NT3 (Neurotrophin 3),approximately 3.5 times
same,DRD2S expression relative to expression induced by 9MβC,[3]; 2-day exposition,higher
same,DRD2S expression relative to expression induced by 9MβC,[3]; 7-day exposition,lower
same,DRD2S expression relative to expression induced by 9MβC,[3]; 14-day exposition,higher
same,time until the criteria (only one mistake) were reached,learning behavior,6 days
same,solubility,physchem,29.7 µg/mL
